Source: ChEMBL document CHEMBL4265889, “Design and synthesis of tetrahydropyridopyrimidine based Toll-Like Receptor (TLR) 7/8 dual agonists” (Bioorg Med Chem Lett, 2018)
pIC50: −log10 of the molar value.

What was measured:
[1] = Cytotoxicity against HEK293 cells transfected with the CMV-TLR7 construct assessed as reduction in cell viability after 6 hrs by ATPlite assay; format: cell-based; settings: human
[2] = target: T1, Toll-like receptor 7 (Homo sapiens) (UniProt Q9NYK1); experiment: Agonist activity at TLR7 in human PBMC assessed as suppression of HCV replicon replication in human HuH7 luc/neo cells harboring RNA encoding bicistronic expression construct comprising wild type HCV type 1b NS3-NS5B regions exposed to conditioned media from compound treated PBMCs after 24 hrs by luciferase reporter gene assay; format: cell-based
T1 sequence (whole entry): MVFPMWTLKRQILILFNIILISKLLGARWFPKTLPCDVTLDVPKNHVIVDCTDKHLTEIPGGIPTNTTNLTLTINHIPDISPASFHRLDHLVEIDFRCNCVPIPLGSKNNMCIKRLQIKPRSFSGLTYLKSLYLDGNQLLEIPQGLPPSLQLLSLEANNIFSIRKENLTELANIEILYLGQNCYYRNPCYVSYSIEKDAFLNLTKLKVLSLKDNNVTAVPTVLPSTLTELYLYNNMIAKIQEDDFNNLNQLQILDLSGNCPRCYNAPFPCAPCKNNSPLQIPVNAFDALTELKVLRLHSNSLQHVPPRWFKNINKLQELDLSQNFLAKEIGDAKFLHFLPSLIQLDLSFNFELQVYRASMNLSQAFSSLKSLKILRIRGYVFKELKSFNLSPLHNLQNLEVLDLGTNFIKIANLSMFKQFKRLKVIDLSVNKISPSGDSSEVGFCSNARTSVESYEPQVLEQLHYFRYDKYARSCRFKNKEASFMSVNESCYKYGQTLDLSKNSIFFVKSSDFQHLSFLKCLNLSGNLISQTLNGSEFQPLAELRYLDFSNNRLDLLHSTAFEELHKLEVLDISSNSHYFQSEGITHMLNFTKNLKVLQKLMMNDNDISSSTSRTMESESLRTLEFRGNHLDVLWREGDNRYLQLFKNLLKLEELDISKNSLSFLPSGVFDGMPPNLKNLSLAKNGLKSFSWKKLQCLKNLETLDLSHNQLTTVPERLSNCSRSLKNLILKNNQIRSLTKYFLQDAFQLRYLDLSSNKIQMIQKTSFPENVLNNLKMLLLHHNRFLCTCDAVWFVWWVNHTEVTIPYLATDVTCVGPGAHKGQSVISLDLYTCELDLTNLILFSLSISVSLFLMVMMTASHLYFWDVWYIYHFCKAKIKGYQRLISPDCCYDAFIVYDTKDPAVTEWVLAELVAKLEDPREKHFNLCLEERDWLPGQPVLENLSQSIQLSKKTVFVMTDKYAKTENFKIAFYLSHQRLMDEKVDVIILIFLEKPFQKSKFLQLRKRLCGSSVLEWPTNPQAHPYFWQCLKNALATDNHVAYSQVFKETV

[3] = target: Voltage-gated inwardly rectifying potassium channel KCNH2 (Homo sapiens, UniProt Q12809); experiment: Displacement of 3H-dofetilide from human ERG
Chain of Voltage-gated inwardly rectifying potassium channel KCNH2 (Q12809 whole entry): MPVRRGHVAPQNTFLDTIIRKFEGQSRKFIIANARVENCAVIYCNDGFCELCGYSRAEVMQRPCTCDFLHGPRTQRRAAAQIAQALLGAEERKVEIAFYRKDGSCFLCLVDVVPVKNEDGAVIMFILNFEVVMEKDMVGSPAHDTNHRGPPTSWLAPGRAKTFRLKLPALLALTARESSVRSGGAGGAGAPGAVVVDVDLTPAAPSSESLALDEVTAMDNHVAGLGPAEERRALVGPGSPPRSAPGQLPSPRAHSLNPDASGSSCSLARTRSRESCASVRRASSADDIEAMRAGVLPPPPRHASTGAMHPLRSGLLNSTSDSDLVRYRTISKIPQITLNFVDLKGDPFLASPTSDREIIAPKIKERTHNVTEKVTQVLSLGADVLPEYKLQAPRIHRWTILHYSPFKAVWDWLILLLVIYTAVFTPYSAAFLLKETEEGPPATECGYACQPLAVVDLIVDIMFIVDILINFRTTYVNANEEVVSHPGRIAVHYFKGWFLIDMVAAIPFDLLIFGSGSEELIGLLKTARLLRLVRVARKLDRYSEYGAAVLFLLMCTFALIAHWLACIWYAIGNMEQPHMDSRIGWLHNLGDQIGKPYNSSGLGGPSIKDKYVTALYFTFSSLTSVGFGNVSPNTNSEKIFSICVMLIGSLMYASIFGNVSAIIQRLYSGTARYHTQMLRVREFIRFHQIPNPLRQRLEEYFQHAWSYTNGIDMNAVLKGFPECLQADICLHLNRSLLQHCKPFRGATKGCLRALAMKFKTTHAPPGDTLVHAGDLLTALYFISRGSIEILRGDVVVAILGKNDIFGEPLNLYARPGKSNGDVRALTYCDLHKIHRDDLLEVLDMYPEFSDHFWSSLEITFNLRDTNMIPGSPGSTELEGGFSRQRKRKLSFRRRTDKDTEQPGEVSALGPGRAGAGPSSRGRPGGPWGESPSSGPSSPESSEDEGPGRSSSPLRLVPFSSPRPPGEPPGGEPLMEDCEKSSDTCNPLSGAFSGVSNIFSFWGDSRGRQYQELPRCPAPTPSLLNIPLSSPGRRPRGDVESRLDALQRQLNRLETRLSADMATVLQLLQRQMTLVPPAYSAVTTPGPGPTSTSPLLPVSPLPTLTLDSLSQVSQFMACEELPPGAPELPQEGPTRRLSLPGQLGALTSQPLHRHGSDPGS

[4] = Drug metabolism in mouse liver microsomes at 1 uM after 15 mins; format: ADME, microsome; settings: read-out: Drug metabolism
[5] = Tmax in C57BL/6 mouse plasma at 5 mg/kg, po; format: ADME, organism-based
[6] = Cmax in C57BL/6 mouse plasma at 5 mg/kg, po; format: ADME, organism-based; set-up: dose 5 mg/kg, route oral
[7] = AUC (0 to last) in C57BL/6 mouse plasma at 5 mg/kg, po; format: ADME, organism-based; set-up: dose 5 mg/kg, route oral, time 0 - last
[8] = AUC (0 to last) in C57BL/6 mouse liver at 5 mg/kg, po; format: ADME, organism-based; settings: in vivo
[9] = Protein binding in mouse plasma; format: ADME, cell-free; settings: read-out: PPB (converted)
[10] = target: Cytochrome P450 3A4 (Homo sapiens, UniProt P08684); experiment: Inhibition of CYP3A4 (unknown origin); format: ADME
Chain of Cytochrome P450 3A4 (P08684 whole entry): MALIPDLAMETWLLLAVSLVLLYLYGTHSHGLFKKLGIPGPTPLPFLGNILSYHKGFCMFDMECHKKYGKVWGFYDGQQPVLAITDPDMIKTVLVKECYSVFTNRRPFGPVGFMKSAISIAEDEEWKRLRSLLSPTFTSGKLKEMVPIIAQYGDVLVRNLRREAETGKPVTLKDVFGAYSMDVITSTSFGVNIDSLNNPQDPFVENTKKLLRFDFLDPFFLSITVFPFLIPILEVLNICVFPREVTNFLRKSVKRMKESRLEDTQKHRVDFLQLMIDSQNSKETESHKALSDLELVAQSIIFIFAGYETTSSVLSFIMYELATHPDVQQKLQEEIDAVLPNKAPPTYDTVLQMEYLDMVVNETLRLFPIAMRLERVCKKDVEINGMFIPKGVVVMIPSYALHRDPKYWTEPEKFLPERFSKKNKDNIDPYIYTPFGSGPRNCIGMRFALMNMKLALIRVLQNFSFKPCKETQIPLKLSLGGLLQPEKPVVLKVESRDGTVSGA

[11] = target: T2, Cytochrome P450 2C8 (Homo sapiens, UniProt P10632); experiment: Inhibition of CYP2C8 (unknown origin); format: ADME
T2 sequence (P10632 whole entry): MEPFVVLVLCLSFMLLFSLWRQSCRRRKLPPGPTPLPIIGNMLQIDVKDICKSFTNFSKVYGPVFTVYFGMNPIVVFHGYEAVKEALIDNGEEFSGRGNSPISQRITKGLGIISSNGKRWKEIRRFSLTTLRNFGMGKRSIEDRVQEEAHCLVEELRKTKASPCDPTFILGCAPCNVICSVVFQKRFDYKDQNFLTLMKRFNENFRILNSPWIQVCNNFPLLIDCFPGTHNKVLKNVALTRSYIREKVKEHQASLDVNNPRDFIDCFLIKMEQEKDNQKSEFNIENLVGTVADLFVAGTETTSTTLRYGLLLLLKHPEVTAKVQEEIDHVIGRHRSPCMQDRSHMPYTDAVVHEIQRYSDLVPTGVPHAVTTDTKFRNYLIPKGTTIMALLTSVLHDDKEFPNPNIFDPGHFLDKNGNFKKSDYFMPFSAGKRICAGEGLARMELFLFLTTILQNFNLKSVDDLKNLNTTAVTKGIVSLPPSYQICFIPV

[12] = target: Cytochrome P450 2C9 (Homo sapiens, UniProt P11712); experiment: Inhibition of CYP2C9 (unknown origin); format: ADME
Chain of Cytochrome P450 2C9 (P11712 whole entry): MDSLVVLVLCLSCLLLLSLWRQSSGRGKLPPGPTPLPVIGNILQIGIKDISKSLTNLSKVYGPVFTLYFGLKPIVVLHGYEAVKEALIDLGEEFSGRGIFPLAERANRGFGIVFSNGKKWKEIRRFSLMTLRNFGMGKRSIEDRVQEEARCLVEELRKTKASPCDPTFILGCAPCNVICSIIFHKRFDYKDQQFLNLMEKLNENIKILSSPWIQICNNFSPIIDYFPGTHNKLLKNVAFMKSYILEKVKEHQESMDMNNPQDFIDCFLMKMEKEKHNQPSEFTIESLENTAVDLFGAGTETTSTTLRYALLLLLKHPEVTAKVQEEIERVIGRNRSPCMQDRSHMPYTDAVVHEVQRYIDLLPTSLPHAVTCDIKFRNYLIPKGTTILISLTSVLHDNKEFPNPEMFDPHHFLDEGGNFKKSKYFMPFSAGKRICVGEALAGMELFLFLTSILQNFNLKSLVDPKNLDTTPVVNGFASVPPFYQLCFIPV

[13] = target: T3, Cytochrome P450 1A2 (Homo sapiens, UniProt P05177); experiment: Inhibition of CYP1A2 (unknown origin); format: ADME
T3 sequence (P05177 whole entry): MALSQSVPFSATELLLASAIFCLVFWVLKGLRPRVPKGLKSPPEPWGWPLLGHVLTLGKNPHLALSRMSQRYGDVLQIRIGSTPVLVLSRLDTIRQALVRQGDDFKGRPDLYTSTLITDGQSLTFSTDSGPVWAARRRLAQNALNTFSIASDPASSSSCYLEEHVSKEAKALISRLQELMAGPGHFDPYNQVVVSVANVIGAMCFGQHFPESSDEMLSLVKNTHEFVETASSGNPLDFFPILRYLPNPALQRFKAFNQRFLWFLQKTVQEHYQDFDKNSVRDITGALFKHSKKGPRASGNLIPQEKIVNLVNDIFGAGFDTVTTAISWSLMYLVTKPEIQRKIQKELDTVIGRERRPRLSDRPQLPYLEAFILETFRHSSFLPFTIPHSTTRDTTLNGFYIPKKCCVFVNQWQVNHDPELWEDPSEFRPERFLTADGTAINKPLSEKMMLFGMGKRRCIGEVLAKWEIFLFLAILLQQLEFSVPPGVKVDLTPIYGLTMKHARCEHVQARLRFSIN

[14] = target: Cytochrome P450 2C19 (Homo sapiens, UniProt P33261); experiment: Inhibition of CYP2C19 (unknown origin); format: ADME
Chain of Cytochrome P450 2C19 (P33261 whole entry): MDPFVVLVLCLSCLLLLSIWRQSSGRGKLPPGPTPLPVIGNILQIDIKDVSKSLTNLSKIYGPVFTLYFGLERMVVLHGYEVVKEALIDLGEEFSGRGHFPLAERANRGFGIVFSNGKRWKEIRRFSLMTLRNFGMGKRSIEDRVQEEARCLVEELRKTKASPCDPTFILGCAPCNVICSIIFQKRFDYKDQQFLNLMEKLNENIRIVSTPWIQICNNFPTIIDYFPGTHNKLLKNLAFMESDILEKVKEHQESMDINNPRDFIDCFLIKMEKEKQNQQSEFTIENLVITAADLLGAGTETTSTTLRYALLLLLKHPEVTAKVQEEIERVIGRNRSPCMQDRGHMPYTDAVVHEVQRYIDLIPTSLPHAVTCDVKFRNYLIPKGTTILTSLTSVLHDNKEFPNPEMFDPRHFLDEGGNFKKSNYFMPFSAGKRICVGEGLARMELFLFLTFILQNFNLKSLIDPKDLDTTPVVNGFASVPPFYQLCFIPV

[15] = tested on: Mus musculus; experiment: Induction of innate immune response in C57BL/6 mouse assessed as IFNalpha Cmax in liver at 5 mg/kg, po; format: functional, organism-based; set-up: dose 5 mg/kg
[16] = tested on: Mus musculus; experiment: Induction of innate immune response in C57BL/6 mouse assessed as IP-10 Cmax in liver at 5 mg/kg, po; format: functional, organism-based; set-up: dose 5 mg/kg
[17] = tested on: Mus musculus; experiment: Induction of innate immune response in C57BL/6 mouse assessed as IP-10 Tmax at 5 mg/kg, po; format: functional, organism-based
[18] = organism: Homo sapiens; experiment: Binding affinity to histamine receptor (unknown origin)
[19] = target: Dopamine receptor (Homo sapiens) (UniProt P14416+P35462+P21918+P21917+P21728); experiment: Binding affinity to dopamine receptor (unknown origin); format: protein assay

## CCC[C@@H](CCO)Nc1nc(N)nc2c1CN(C(=O)c1csc(C)n1)CC2
[1]
  CC50 at 6 h: > 24 µM
[2]
  MEC: 0.2 µM
[3]
  pIC50: 4.66
[4]
  metabolised at 0.25 h, 1 µM: 33%
[5]
  Tmax: 0.5 h
[6]
  Cmax: 29 ng/mL
[7]
  AUC(0-t): 70 ng·h/mL
[8]
  AUClast: 1410 ng·h/g
[9]
  fraction unbound: 0.7
[10]
  pIC50: < 5.00
[11]
  pIC50: < 5.00
[12]
  pIC50: < 5.00
[13]
  pIC50: < 5.00
[14]
  pIC50: < 5.00
[15]
  Cmax: 0 pg/g
[16]
  Cmax: 75 pg/g
[17]
  Tmax: 4 h
[18]
  Activity: > 10 µM
[19]
  Activity: > 10 µM
